Results reported in patent US20160237106A1 (priority 2015, published 2016).
pEC50: −log10 of the molar value.

Key:
Ebola virus = assay: microbe, parasite or virus in culture; type: cell-based; settings: Zaire ebolavirus, Vero C1008
in vitro = settings: African green monkey

Row | SMILES | pEC50 (Ebola virus) | CC50 (in vitro) [µM]
1 | [N-]=[N+]=N[C@]1(CO)O[C@@H](n2cnc3c(=O)[nH]c(N)nc32)[C@H](F)[C@@H]1O [Compound I-47, 4′-Azido-2′-deoxy-2′-fluoroguanosine] | > 4.70 | > 50
2 | [N-]=[N+]=N[C@]1(CO)O[C@@H](n2ccc(N)nc2=O)[C@H](F)[C@@H]1O [Compound I-17, 4′-Azido-2′-deoxy-2′-fluorocytidine] | > 4.70 | > 50
3 | [N-]=[N+]=N[C@]1(CO)O[C@@H](n2cnc3c(=O)[nH]c(N)nc32)[C@H](O)[C@@H]1O [Compound I-48, 4′-Azidoguanosine] | > 4.30 | > 50
4 | C[C@H](NP(=O)(OC[C@@]1(N=[N+]=[N-])O[C@@H](n2ccc(=O)[nH]c2=O)[C@H](O)[C@@H]1O)Oc1cccc2ccccc12)C(=O)OCc1ccccc1 (stereo partly drawn) [Compound I-6, 4′-Azidouridine-5′-(O-1-naphthyl-N-(S)-1-(benzyloxycarbonyl)ethyl phosphoramidate] | > 4.70 | > 50
